Values quoted from earlier work, collected in patent US20220175673A1, “SURGICAL DEVICE” (Saint Anthony Biomedical, LLC, priority 2017, published 2022).

Test system: Bacteroides, Propionibacterium, Clostridium deficile, Selenomonas
Conditions: some strains

[H]/N=C(\N/C(=N/[H])NCCCCCCNC(=N)NC(=N)Nc1ccc(Cl)cc1)Nc1ccc(Cl)cc1 [Chlorhexidine, chlorhexidine]
activity: active against some strains
